For 15 compounds, IC50 results are on record in patent US20260176289A1, “SMALL MOLECULE INHIBITORS OF KRAS PROTEINS” (Merck Sharp & Dohme LLC, priority 2022, published 2026).

Where two headings read alike, the source gives them in different places.

One experiment has as its target KRAS-G12D (Homo sapiens, UniProt P01116, G12D). Briefly: SOS-catalyzed nucleotide exchange assay (Procedure A, TR-FRET), KRAS-G12D. It counts as biochemical. The procedure, abridged:
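Signal ratio (520/495 nm, excitation 340 nm) reports Bodipy-GDP retention on biotinylated RAS after SOS-catalyzed exchange with 3 mM GTP. SOS was 40 nM, except 160 nM for G12V. Room-temperature exchange lasted 60 min (90 min for G12V), following a 60 min compound preincubation.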
(In general: In TR-FRET formats the signal depends on donor and acceptor labels being close together.)

A further experiment deals with AsPC-1 cells. Briefly: Cellular phospho-ERK assay, AsPC-1 cells (homozygous KRAS-G12D). The settings on record: Homo sapiens, read-out: AsPC1 pERK IC50. It counts as cell-based. Summed up:
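Inhibition of ERK phosphorylation was determined after treating attached cells with compound for 2 h; top concentration 30 μM, serial 1:3 dilution. Each well's p-ERK:total ERK ratio, read by SureFire Ultra, was fitted with a four-parameter model for IC50.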

Another experiment addresses KRAS-WT (Homo sapiens, UniProt P01116). Briefly: SOS-catalyzed nucleotide exchange assay (Procedure A, TR-FRET), KRAS-WT. Format: biochemical. The settings on record: nucleotide exchange, read-out: KRAS WT GNE IC50. The procedure, abridged: (§1)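 Compounds (10-point, 3-fold) were preincubated 60 min at room temperature with a biotinylated RAS/Bodipy-GDP/Tb-streptavidin TR-FRET complex. Exchange was started with human SOS plus 3 mM GTP. RAS/SOS: G12C 3/40 nM, WT 1/40 nM, NRAS 1.25/40 nM (60 min); G12V 1.25/160 nM (90 min). The 520/495 ratio was fit four-parameter.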

Another experiment has as its target KRAS-G12V (Homo sapiens, UniProt P01116, G12V). Briefly: SOS-catalyzed nucleotide exchange assay (Procedure A, TR-FRET), KRAS-G12V. Format: biochemical. Summed up: as §1
[1] abbreviates: nucleotide exchange, read-out: KRAS G12D GNE IC50.
The mark [2] stands for this setting: nucleotide exchange, read-out: KRAS G12V GNE IC50.
Where [3] appears, read: ASPC1, 2 h, 2 hours compound incubation.

KRAS-G12D, sequence (P01116 with tags, fused parts or gaps isoform P01116-2 G12D): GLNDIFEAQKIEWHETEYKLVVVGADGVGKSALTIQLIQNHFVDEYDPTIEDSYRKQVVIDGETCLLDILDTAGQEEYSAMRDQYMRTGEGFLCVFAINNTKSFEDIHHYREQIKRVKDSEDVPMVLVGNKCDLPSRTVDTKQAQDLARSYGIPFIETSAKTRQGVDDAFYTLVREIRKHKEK
KRAS-G12V, sequence (P01116 with tags, fused parts or gaps isoform P01116-2 G12V): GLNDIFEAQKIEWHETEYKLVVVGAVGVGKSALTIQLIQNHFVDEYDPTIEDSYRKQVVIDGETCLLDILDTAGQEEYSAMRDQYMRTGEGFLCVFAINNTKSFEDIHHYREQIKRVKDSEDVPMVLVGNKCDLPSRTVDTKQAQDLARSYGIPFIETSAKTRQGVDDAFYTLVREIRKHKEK
KRAS-WT, sequence (P01116 with tags, fused parts or gaps isoform P01116-2): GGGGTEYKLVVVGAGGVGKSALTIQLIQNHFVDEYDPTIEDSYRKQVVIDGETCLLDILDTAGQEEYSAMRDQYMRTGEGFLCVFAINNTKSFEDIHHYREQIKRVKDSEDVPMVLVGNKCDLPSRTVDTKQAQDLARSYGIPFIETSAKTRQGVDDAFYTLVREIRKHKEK

By IC50 is commonly meant the concentration that inhibits the measured activity by half. With `CO[C@@H]1C[C@@H](COc2nc(N3CCOC[C@@](C)(O)C3)c3c(n2)sc2c(-c4c(C5CC5)c(C(F)(F)F)cc5[nH]ncc45)nccc23)N(C)C1` [Ex-85, (6S)-4-(8-(5-cyclopropyl-6-(trifluoromethyl)-1H-indazol-4-yl)-2-(((2S,4R)-4-methoxy-1-methylpyrrolidin-2-yl)methoxy)pyrido[4′,3′:4,5]thi-eno[2,3-d]pyrimidin-4-yl)-6-methyl-1,4-oxazepan-6-ol], the concentration for half-maximal inhibition (IC50) at KRAS-G12D (setting [1]) was 38.8 nM; with AsPC-1 cells (ASPC1, 2 h, KRAS-G12D, 2 hours), 764 nM; at KRAS-WT, 81.1 nM; at KRAS-G12V (setting [2]), 44.3 nM.
The like results for `Cn1ccc2cc3[nH]ncc3c(-c3nccc4c3sc3nc(OC[C@@]56CCCN5C[C@H](F)C6)nc(N5CCOC[C@@](C)(O)C5)c34)c21` [Ex-46] were, in that order, 72.4 nM, 934 nM, 166 nM and 157 nM.
Regarding `C[C@@]1(O)COCCN(c2nc(OC[C@@]34CCCN3C[C@H](F)C4)nc3sc4c(-c5cccc(Cl)c5[Si](C)(C)C)nccc4c23)C1` [Ex-123, (S)-4-(8-(3-chloro-2-(trimethylsilyl)phenyl)-2-(((2R,7aS)-2-fluorotetrahydro-1H-pyrrolizin-7a(5H)-yl)methoxy)pyri-do[4′,3′:4,5]thieno[2,3-d]pyrimidin-4-yl)-6-methyl-1,4-oxazepan-6-ol], the IC50 worked out at 173 nM against KRAS-G12D (KRAS G12D GNE IC50, nucleotide exchange); 2060 nM with AsPC-1 cells (ASPC1, KRAS-G12D, 2 hours); 434 nM at KRAS-WT; 157 nM at KRAS-G12V (KRAS G12V GNE IC50, nucleotide exchange).
On to `COCc1cc2[nH]ncc2c(-c2nccc3c2sc2nc(OC[C@@]45CCCN4C[C@H](F)C5)nc(N4CCOC[C@@](C)(O)C4)c23)c1C1CC1` [Ex-50, (6S)-4-(8-(5-cyclopropyl-6-(methoxymethyl)-1H-indazol-4-yl)-2-(((2R,7aS)-2-fluorotetrahydro-1H-pyrrolizin-7a(5H)-yl)methoxy)pyrido[4′,3′:4,5]thi-eno[2,3-d]pyrimidin-4-yl)-6-methyl-1,4-oxazepan-6-ol], for which the half-maximal inhibitory concentration (IC50) came out at 243 nM at KRAS-G12D (setting [1]); 3960 nM in the experiment with AsPC-1 cells (ASPC1, 2 h, KRAS-G12D, 2 hours); 326 nM at KRAS-WT; 291 nM at KRAS-G12V (setting [2]).
Regarding `CO[C@H]1C[C@@H](COc2nc(N3CCOC[C@@](C)(O)C3)c3c(n2)sc2c(-c4c(C5CC5)c(C(F)(F)F)cc5[nH]ncc45)nccc23)N(C)C1` [Ex-84, (6S)-4-(8-(5-cyclopropyl-6-(trifluoromethyl)-1H-indazol-4-yl)-2-(((2S,4S)-4-methoxy-1-methylpyrrolidin-2-yl)methoxy)pyrido[4′,3′:4,5]thi-eno[2,3-d]pyrimidin-4-yl)-6-methyl-1,4-oxazepan-6-ol], the IC50 on KRAS-G12D (setting [1]) is 670 nM; in the experiment with AsPC-1 cells (ASPC1, 2 h, KRAS-G12D, 2 hours), 2890 nM; on KRAS-WT, 1380 nM; on KRAS-G12V (setting [2]), 847 nM.
The matching figures for `C#Cc1c(F)ccc2cc3[nH]ncc3c(-c3nccc4c5c(N6CCOC[C@@](C)(O)C6)nc(OC[C@@]67CCCN6C[C@H](F)C7)nc5n(C)c34)c12` [Ex-25, (6S)-4-(8-(5-ethynyl-6-fluoro-1H-benzo[f]indazol-4-yl)-2-(((2R,7aS)-2-fluorotetrahydro-1H-pyrrolizin-7a(5H)-yl)methoxy)-9-methyl-9H-pyrido[4′,3′:4,5]pyrrolo[2,3-d]pyrimidin-4-yl)-6-methyl-1,4-oxazepan-6-ol]: 61.6 nM, 1150 nM, 136 nM and 89.8 nM.
The like results for `CC1=CCc2cc3[nH]ncc3c(-c3nccc4c3sc3nc(OC[C@@]56CCCN5C[C@H](F)C6)nc(N5CCOC[C@@](C)(O)C5)c34)c21` [Ex-106, (6S)-4-(2-(((2R,7aS)-2-fluorotetrahydro-1H-pyrrolizin-7a(5H)-yl)methoxy)-8-(5-methyl-1,7-dihydrocyclopenta[f]inda-zol-4-yl)pyrido[4′,3′:4,5]thieno [2,3-d]pyrimidin-4-yl)-6-methyl-1,4-oxazepan-6-ol] were, in that order, 19.7 nM, 128 nM, 55.1 nM and 30.6 nM.
For the compound `C#CC(F)(F)c1c(C)cc2[nH]ncc2c1-c1nccc2c1sc1nc(OC[C@@]34CCCN3C[C@H](F)C4)nc(N3CCOC[C@@](C)(O)C3)c12` [Ex-153, (6S)-4-(8-(5-(1,1-difluoroprop-2-yn-1-yl)-6-methyl-1H-indazol-4-yl)-2-(((2R,7aS)-2-fluorotetrahydro-1H-pyrrolizin-7a(5H)-yl)methoxy)pyrido[4′,3′:4,5]thieno[2,3-d]pyrimidin-4-yl)-6-methyl-1,4-oxazepan-6-ol], the half-inhibitory concentration (IC50) is 123 nM on KRAS-G12D (setting [1]); 1640 nM in the experiment on AsPC-1 cells (ASPC1, 2 hours compound incubation); 322 nM on KRAS-WT; 215 nM at KRAS-G12V (setting [2]).
`CC1CCc2cccc(-c3nccc4c3sc3nc(OC[C@@]56CCCN5C[C@H](F)C6)nc(N5CCOC[C@@](C)(O)C5)c34)c21` (single isomer, unassigned) [Ex-117]: the IC50 at KRAS-G12D (setting [1]) amounted to 73.6 nM; in the experiment with AsPC-1 cells (ASPC1, 2 h, KRAS-G12D, 2 hours), 720 nM; at KRAS-WT it was 218 nM; on KRAS-G12V (setting [2]), 96.1 nM.
For `Cc1cc2[nH]ncc2c(-c2nc(C#N)cc3c2sc2nc(OC[C@@]45CCCN4C[C@H](F)C5)nc(N4CCOC[C@@](C)(O)C4)c23)c1C(F)(F)F` [Ex-31, 2-(((2R,7aS)-2-fluorotetrahydro-1H-pyrrolizin-7a(5H)-yl)methoxy)-4-((S)-6-hydroxy-6-methyl-1,4-oxazepan-4-yl)-8-(6-methyl-5-(trifluoromethyl)-1H-indazol-4-yl)pyrido[4′,3′:4,5]thieno[2,3-d]pyrimidine-6-carbonitrile], the IC50 at KRAS-G12D (setting [1]) amounted to 305 nM; in the experiment with AsPC-1 cells (ASPC1, 2 h, KRAS-G12D, 2 hours), 1310 nM; at KRAS-WT it was 571 nM; on KRAS-G12V (setting [2]), 219 nM.
The like results for `C[C@@H]1CC[C@@H](COc2nc(N3CCOC[C@@](C)(O)C3)c3c(n2)sc2c(-c4c(C5CC5)c(C(F)(F)F)cc5[nH]ncc45)nccc23)N1C` [Ex-86, (6S)-4-(8-(5-cyclopropyl-6-(trifluoromethyl)-1H-indazol-4-yl)-2-(((2S,5R)-1,5-dimethylpyrrolidin-2-yl)methoxy)pyrido[4′,3′:4,5]thi-eno[2,3-d]pyrimidin-4-yl)-6-methyl-1,4-oxazepan-6-ol] were, in that order, 14.6 nM, 361 nM, 33.8 nM and 21.2 nM.
The matching figures for `C[C@@]1(O)COCCN(c2nc(OC[C@@]34CCCN3C[C@H](F)C4)nc3sc4c(-c5c(-c6ccco6)c(C(F)(F)F)cc6[nH]ncc56)nccc4c23)C1` [Ex-78]: 94.7 nM, 434 nM, 194 nM and 84.8 nM.
Regarding `C[C@@]1(O)COCCN(c2nc(OC[C@]3(CN4C[C@@H]5C[C@H]4CO5)CC3(F)F)nc3sc4c(-c5c(C6(F)CC6)c(Cl)cc6[nH]ncc56)nccc4c23)C1` [Ex-236, (6S)-4-(2-(((R)-1-(((15,4S)-2-oxa-5-azabicyclo[2.2.1]heptan-5-yl)methyl)-2,2-difluorocyclopropyl)methoxy)-8-(6-chloro-5-(1-fluorocyclopropyl)-1H-indazol-4-yl)pyrido[4′,3′:4,5]thieno[2,3-d]pyrimidin-4-yl)-6-methyl-1,4-oxazepan-6-ol], the IC50 was 16.2 nM at KRAS-G12D (setting [1]), 242 nM with AsPC-1 cells (setting [3]), 121 nM on KRAS-WT and 34.8 nM on KRAS-G12V (setting [2]).
Consider `CC1(C)C2CN(C[C@@]3(COc4nc(N5CCOC[C@@](C)(O)C5)c5c(n4)sc4c(-c6c(C7(F)CC7)c(Cl)cc7[nH]ncc67)nccc45)CC3(F)F)CC21` (stereo partly drawn) [Ex-234, (6S)-4-(8-(6-chloro-5-(1-fluorocyclopropyl)-1H-indazol-4-yl)-2-(((1R)-1-((6,6-dimethyl-3-azabicyclo[3.1.0]hexan-3-yl)methyl)-2,2-difluorocyclopropyl)methoxy)pyrido[4′,3′:4,5]thieno[2,3-d]pyrimidin-4-yl)-6-methyl-1,4-oxazepan-6-ol], for which the half-maximal inhibitory concentration (IC50) is 27.4 nM on KRAS-G12D (setting [1]), 1520 nM in the experiment on AsPC-1 cells (setting [3]), 389 nM at KRAS-WT and 107 nM on KRAS-G12V (setting [2]).
For `C[C@@]1(O)COCCN(c2nc(OC[C@]3(CN4CC5(CC5)C4)CC3(F)F)nc3sc4c(-c5c(C6(F)CC6)c(Cl)cc6[nH]ncc56)nccc4c23)C1` [Ex-250, (6S)-4-(2-(((R)-1-((5-azaspiro[2.3]hexan-5-yl)methyl)-2,2-difluorocyclopropyl)methoxy)-8-(6-chloro-5-(1-fluorocyclopropyl)-1H-indazol-4-yl)pyrido[4′,3′:4,5]thieno[2,3-d]pyrimidin-4-yl)-6-methyl-1,4-oxazepan-6-ol], the IC50 on KRAS-G12D (setting [1]) was determined as 8.56 nM; in the experiment with AsPC-1 cells (setting [3]), 152 nM; on KRAS-WT, 36.2 nM; on KRAS-G12V (setting [2]) it was 18.6 nM.
